Experiment [1] addresses T1, mTOR (Homo sapiens, UniProt P42345).
T1 construct: recombinant human mTOR fragment (amino acid 1360-2549, molecular weight=163.9 kDa); GST-tag (N); host or cells: insect cells
Description: In vitro enzyme activity assay, mTOR kinase (32P-ATP, P81 filter-binding). The class given is biochemical. The settings on record: 4EBPI substrate, 10 μM ATP; read-out: mTOR enzyme activity_IC50. The method, then:
mTOR kinase activities of the compounds in all the examples of the present invention were tested via the following method.
Reaction buffer: 20 mM Hepes (pH 7.5), 10 mM MgCl2, 2 mM MnCl2, 1 mM EGTA, 0.02% Brij35, 0.02 mg/mL BSA, 0.1 mM Na3VO4, 2 mM DTT, and 2% DMSO.
Enzyme for reaction: recombinant human mTOR fragment (amino acid 1360-2549, molecular weight=163.9 kDa) with a GST-tag at the N-terminus, which was expressed in insect cells.
Substrate for reaction: recombinant full-length human 4EBPI (molecular weight=13.6 kDa) with a His-tag at the N-terminus, which was expressed in bacteria.
Reaction conditions: […] 4EBPI and 10 μM ATP.
1. adding the reaction substrate and other reaction factors into the freshly prepared reaction buffer;
(§1) 2. adding the kinase into the substrate reaction solution, and mixing gently;
3. transferring the compound dissolved in 100% DMSO into the kinase reaction solution by using Acoustic technique (Echo550; nanoliter rang), and incubating at room temperature for 20 minutes;
4. adding an appropriate concentration of ^32P-ATP into the reaction system;
5. incubating at room temperature for 2 hours;
6. detecting the kinase activity by using P81 filter-binding method.

In experiment [2] the test system is MCF-7 cells. Description: In vitro cell activity assay (MCF-7, insulin stimulation, ELISA-One). The settings on record: Homo sapiens, MCF7, compound 2 hours in serum-free media, then 10 μg/ml insulin 30 min. The experiment is classed as cell-based. The method, then: Experimental Steps and Method Comprise:
1. MCF-7 cells were seeded at 2,5000 cells per well in a 96 well tissue culture plate in a complete media containing 10%0/FBS.
3. The cells were treated with 10 μg/ml insulin in serum-free media for 30 min.
4. During waiting period, lysis solution was prepared as below:
a) Enhancer Solution needs to be taken out from the refrigerator to be thawed.
b) Concentrated lysis solution was prepared by diluting Enhancer Solution 10-fold in 5× Lysis Buffer.
c) Lysis solution was prepared by diluting concentrated lysis solution 5-fold with ddH2O.
5. Any media were removed from wells and the wells were rinsed with PBS once quickly.
6. 50 μL of freshly prepared lysis solution were added into each well, with shaking at room temperature for 10 min.
7. After confirming that all cells get detached from wells, the lysis solution together with the cell debris was transferred to 1.5 ml tubes.
8. The tubes were vortexed several times to thoroughly mix the lysis solution and cells, and then, and then the mixture was centrifuged at 12,000 g for 10 min at 4° C.;
9. The desired number of ELISA-One microplate strips was determined. Unused strips were removed from frame and returned to storage pouch and seal. Wells for use in the assay were rinsed with 200 μL ddH2O to remove preservatives prior to use.
10. 50 μL of antibody mixture solution was added into each well. (Antibody mixture solution was prepared by mixing capture antibody reagent and detection antibody reagent equally, avoid vortexing)
11. 25 μL of lysate was added into each well of the ELISA-One microplate. The microplate was covered with adhesive seal and incubated for 1 hour at room temperature on a microplate shaker.
12. Each well was washed with 150 μL 1× wash buffer 3 times. After final wash, any remaining wash buffer was removed from wells. If necessary, leave microplate in 1× Wash Buffer for up to 30 min, until substrate mixture solution has been prepared.
13. The substrate mixture solution should be prepared when used, 100 μL of substrate mixture solution was added into each well, and then the microplate was sealed with tin foil and incubated at room temperature for 10 minutes on a microplate shaker.
14. 10 μL of stop solution was added into each well, and then mixed slightly (5-10 seconds) on a microplate shaker.
15. Corresponding ELISA-One filter set was installed to read the fluorescence signal intensity.

For experiment [3], the target named is PI3K (p110α) (Homo sapiens, UniProt P42336). Description: In vitro enzyme activity assay, PI3K (p110α) kinase, Method I (HTRF). The arrangement: recombinant full-length human PI3K p110α subunit; His-tag (N); host or cells: insect cells. The class given is biochemical. As to conditions: 10 μM PI(4,5)P2 and 10 μM ATP), read-out: PI3K (p110α) enzyme activity_IC50. Here is the method:
PI3K (p110α) kinase activities of the compounds in all the examples of the present invention were tested via the following two methods, respectively.
Reaction buffer: HEPES 50 mM (pH7.0), NaN3 0.02%, BSA 0.01%. Orthovanadate 0.1 mM, and 1% DMSO.
Detection buffer: HEPES 10 mM (pH7.0), BSA 0.02%, KF 0.16 M, and EDTA 4 mM.
Enzymes for reaction: recombinant full-length human PI3K p110α subunit (molecular weight=128.4 kDa) with a His-tag at the N-terminus and unlabeled p85α subunit (molecular weight=83.6 kDa), which were expressed in insect cells.
Substrate for reaction: […] PIP2 substrate (PI(4,5)P2).
Reaction conditions: 10 μM PI(4,5)P2 and 10 μM ATP.
1. preparing the substrate in the freshly prepared reaction buffer;
as §1
3. transferring the compound dissolved in 100% DMSO into the kinase reaction solution by using Acoustic technique (Echo550; nanoliter rang), and incubating at room temperature for 10 minutes;
4. adding an appropriate concentration of ATP into the reaction system,
5. incubating at 30° C. for half an hour;
6. terminating the reaction by adding a stop solution;
7. adding the detection buffer and incubating overnight; and
8. detecting by using homogeneous time-resolved fluorescence (HTRF) method (excitation wavelength of 320 nm, measuring the ratio of the emission wavelength readings at 615 nm and 665 nm).

PI3K (p110α), sequence (P42336 whole entry): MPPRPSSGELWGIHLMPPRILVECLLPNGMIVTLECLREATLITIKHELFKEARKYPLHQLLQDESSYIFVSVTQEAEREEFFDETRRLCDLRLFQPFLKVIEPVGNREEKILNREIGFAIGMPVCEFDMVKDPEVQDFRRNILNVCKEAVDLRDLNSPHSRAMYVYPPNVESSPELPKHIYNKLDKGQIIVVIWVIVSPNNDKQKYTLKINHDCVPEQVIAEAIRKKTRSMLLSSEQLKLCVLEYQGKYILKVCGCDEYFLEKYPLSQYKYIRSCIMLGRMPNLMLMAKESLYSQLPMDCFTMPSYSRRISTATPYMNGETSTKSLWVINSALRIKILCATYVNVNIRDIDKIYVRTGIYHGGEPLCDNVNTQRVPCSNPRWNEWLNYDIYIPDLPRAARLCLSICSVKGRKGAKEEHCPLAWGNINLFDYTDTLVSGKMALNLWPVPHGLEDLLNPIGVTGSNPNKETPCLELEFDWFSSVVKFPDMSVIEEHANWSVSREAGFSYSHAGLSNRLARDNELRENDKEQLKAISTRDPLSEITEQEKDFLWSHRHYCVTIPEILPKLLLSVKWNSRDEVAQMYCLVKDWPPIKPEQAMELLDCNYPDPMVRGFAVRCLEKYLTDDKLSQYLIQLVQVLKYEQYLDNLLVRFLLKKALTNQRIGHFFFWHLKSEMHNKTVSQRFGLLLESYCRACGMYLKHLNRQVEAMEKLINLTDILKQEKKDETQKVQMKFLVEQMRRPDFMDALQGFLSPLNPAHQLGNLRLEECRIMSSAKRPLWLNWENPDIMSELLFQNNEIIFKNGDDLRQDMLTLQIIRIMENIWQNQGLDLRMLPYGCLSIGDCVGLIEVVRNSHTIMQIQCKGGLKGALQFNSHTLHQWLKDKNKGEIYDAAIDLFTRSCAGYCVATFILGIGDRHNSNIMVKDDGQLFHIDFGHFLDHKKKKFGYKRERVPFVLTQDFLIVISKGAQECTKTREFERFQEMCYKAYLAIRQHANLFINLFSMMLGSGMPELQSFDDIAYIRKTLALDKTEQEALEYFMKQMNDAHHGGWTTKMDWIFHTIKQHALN
PI3K (p110α), sequence (P27986 whole entry partner): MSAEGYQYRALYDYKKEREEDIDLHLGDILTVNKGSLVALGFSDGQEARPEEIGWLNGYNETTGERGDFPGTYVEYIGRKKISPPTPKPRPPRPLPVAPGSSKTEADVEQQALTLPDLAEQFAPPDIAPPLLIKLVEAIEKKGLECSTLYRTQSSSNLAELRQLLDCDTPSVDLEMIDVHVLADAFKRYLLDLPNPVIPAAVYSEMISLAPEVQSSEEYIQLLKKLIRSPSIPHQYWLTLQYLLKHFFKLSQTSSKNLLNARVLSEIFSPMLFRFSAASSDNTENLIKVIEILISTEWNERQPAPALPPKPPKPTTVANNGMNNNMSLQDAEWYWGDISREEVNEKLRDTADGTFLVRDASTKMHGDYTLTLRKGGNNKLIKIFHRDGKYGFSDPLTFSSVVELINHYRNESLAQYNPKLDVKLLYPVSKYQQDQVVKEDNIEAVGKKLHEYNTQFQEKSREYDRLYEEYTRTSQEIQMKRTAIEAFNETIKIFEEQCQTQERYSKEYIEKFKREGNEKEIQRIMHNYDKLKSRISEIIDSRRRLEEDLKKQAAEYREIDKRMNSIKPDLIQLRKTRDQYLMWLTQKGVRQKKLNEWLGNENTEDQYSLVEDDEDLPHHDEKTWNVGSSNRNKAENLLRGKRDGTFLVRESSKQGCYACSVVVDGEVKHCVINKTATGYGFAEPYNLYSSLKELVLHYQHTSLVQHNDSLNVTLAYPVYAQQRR
T1 sequence (P42345 1360-2549): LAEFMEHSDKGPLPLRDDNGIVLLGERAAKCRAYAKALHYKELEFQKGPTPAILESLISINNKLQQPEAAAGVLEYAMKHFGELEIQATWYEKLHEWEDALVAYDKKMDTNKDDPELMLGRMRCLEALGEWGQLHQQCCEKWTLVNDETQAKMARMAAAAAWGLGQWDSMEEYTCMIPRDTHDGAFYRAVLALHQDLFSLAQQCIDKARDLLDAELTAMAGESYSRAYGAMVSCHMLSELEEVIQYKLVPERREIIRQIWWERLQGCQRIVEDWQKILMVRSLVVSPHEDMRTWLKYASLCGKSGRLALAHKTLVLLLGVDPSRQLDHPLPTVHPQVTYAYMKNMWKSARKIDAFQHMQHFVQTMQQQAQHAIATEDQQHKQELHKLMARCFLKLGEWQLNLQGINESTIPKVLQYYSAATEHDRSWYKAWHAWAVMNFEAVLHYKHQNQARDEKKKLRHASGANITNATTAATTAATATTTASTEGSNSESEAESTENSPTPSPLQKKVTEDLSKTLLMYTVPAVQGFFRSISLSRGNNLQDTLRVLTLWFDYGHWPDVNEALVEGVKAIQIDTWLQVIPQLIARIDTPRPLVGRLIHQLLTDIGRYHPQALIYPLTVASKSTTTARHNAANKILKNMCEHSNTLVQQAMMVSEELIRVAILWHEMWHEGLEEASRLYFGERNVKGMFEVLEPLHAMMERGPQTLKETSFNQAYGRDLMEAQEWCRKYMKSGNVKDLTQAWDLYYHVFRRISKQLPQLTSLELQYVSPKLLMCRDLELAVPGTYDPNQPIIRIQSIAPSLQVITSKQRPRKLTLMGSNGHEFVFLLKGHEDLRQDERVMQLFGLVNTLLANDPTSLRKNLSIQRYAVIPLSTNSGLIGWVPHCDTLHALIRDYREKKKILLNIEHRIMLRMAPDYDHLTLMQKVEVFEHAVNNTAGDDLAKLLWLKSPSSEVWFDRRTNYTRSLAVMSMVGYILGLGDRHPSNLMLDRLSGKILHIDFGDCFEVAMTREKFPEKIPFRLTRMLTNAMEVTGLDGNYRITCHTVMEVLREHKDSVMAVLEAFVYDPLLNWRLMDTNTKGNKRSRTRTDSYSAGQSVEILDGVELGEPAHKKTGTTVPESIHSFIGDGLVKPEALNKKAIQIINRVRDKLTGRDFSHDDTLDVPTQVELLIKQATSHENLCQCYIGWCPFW

As for `COc1ncc(-c2ccc3ncc(OCCN4CCOCC4)c(=O)n3c2)cc1NS(=O)(=O)c1ccccc1F` [Compound 9], the IC50 in experiment [1] is above 200 nM; in experiment [2] it was 100 to 250 nM; in experiment [3], at most 1 nM.

With `COc1ncc(-c2ccc3ncc(OCCN4CCOCC4)c(=O)n3c2)cc1NS(=O)(=O)c1ccccc1Cl` [Compound 10], the IC50 in experiment [1] was above 200 nM; in experiment [2], 50 to 100 nM; in experiment [3] it was at most 1 nM.

Turning to `COc1ncc(-c2ccc3ncc(OCCN4CCOCC4)c(=O)n3c2)cc1NS(=O)(=O)c1ccc(F)cc1Cl` [Compound 11], the IC50 was above 200 nM in experiment [1], at most 50 nM in experiment [2] and at most 1 nM in experiment [3].

`Cc1nc(C)c(S(=O)(=O)Nc2cc(-c3ccc4ncc(OCCN5CCOCC5)c(=O)n4c3)cnc2N)s1` [Compound 12]: the figures for the IC50 in experiment [1], in experiment [2] and in experiment [3] were 50 to 200 nM, above 250 nM and at most 1 nM, respectively.

On to `COc1ncc(-c2ccc3ncc(OCCN4CCOCC4)c(=O)n3c2)cc1NS(=O)(=O)c1ccc(Cl)s1` [Compound 14], for which the IC50 was above 200 nM in experiment [1], at most 50 nM in experiment [2] and at most 1 nM in experiment [3].

On to `COc1ncc(-c2ccc3ncc(OCCN4CCOCC4)c(=O)n3c2)cc1NS(=O)(=O)c1sc(C)nc1C` [Compound 15], for which the IC50 in experiment [1] is 50 to 200 nM; in experiment [2], at most 50 nM; in experiment [3], at most 1 nM.

As to `COc1ncc(-c2ccc3ncc(OCCN4CCOCC4)c(=O)n3c2)cc1NS(=O)(=O)c1sc(N)nc1C` [Compound 16], the IC50 in experiment [1] was 50 to 200 nM; in experiment [2], 100 to 250 nM; in experiment [3], at most 1 nM.

Turning to `COc1ncc(-c2ccc3ncc(OCCN(C)C)c(=O)n3c2)cc1NS(=O)(=O)c1sc(C)nc1C` [Compound 35], the IC50 in experiment [1] is 50 to 200 nM; in experiment [2], at most 50 nM; in experiment [3], at most 1 nM.

As to `COc1ncc(-c2ccc3ncc(OCCN(C)C)c(=O)n3c2)cc1NS(=O)(=O)c1sccc1C` [Compound 36], the IC50 was above 200 nM in experiment [1], at most 50 nM in experiment [2] and at most 1 nM in experiment [3].

Consider `COc1ncc(-c2ccc3ncc(OCCn4cccn4)c(=O)n3c2)cc1NS(=O)(=O)c1ccc(F)cc1F` [Compound 37, 2,4-Difluoro-N-(2-methoxy-5-(4-oxo-3-(2-pyrazol-1-yl-ethoxy)pyrido[1,2-a]pyrimidin-7-yl)pyridin-3-yl)benzenesulfonamide], for which the IC50 in experiment [1] is 50 to 200 nM; in experiment [2], 100 to 250 nM; in experiment [3] it was at most 1 nM.

As for `COc1ncc(-c2ccc3ncc(OCCN4CCCC4)c(=O)n3c2)cc1NS(=O)(=O)c1ccc(F)cc1F` [Compound 42], the IC50 in experiment [1] is above 200 nM; in experiment [2], 100 to 250 nM; in experiment [3], at most 1 nM.

In the case of `COc1ncc(-c2ccc3ncc(OCCN(C)C)c(=O)n3c2)cc1NS(=O)(=O)c1ccc(F)cc1F` [Compound 43], the IC50 is above 200 nM in experiment [1], 50 to 100 nM in experiment [2] and at most 1 nM in experiment [3].

Values taken from US9856256B2, “Pyridino[1,2-A]pyrimidone analogue used as P13K inhibitor” (CHIA TAI TIANQING PHARMACEUTICAL GROUP CO., LTD., priority 2014, dated 2018).
